PubChem BioAssay (NCI)
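Cells were grown in 96-well plates and exposed to each compound for 48 hours at five concentrations; endpoints were interpolated linearly between bracketing concentrations, or set to the highest concentration if not reached. TGI denotes the concentration required for complete inhibition of growth.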

Experiments:
Assay in all cases: inhibition of tumour cell growth, NCI panel, 48 h
[1] = system: 786-0 renal
[2] = system: A498 renal
[3] = system: A549 NSCLC
[4] = system: ACHN renal
[5] = system: BT-549 breast
[6] = system: CAKI-1 renal
[7] = system: CCRF-CEM leukemia
[8] = system: COLO 205 colon
[9] = system: DU-145 prostate
[10] = system: EKVX NSCLC
[11] = system: HCC-2998 colon
[12] = system: HCT-116 colon
[13] = system: HCT-15 colon
[14] = system: HL-60(TB) leukemia
[15] = system: HOP-62 NSCLC
[16] = system: HS 578T breast
[17] = system: HT29 colon
[18] = system: IGROV1 ovarian
[19] = system: K-562 leukemia
[20] = system: KM12 colon
[21] = system: M14 melanoma
[22] = system: MALME-3M melanoma
[23] = system: MCF7 breast
[24] = system: MDA-MB-231 breast
[25] = system: MDA-N
[26] = system: MOLT-4 leukemia
[27] = system: NCI-H226 lung
[28] = system: NCI-H23 lung
[29] = system: NCI-H460 lung
[30] = system: NCI-H522 lung
[31] = system: NCI/ADR-RES ovarian
[32] = system: OVCAR-3 ovarian
[33] = system: OVCAR-4 ovarian
[34] = system: OVCAR-5 ovarian
[35] = system: OVCAR-8 ovarian
[36] = system: PC-3 prostate
[37] = system: RXF 393 renal
[38] = system: SF-268 CNS
[39] = system: SF-295 CNS
[40] = system: SF-539 CNS
[41] = system: SK-MEL-2 melanoma
[42] = system: SK-MEL-28 melanoma
[43] = system: SK-MEL-5 melanoma
[44] = system: SK-OV-3 ovarian
[45] = system: SN12C renal
[46] = system: SNB-19 CNS
[47] = system: SNB-75 CNS
[48] = system: SR leukemia
[49] = system: SW-620 colon
[50] = system: T-47D breast
[51] = system: TK-10 renal
[52] = system: U251 CNS
[53] = system: UACC-257 melanoma
[54] = system: UACC-62 melanoma
[55] = system: UO-31 renal
[56] = system: HOP-92 NSCLC
[57] = system: LOX IMVI melanoma
[58] = system: MDA-MB-435

CCCCS(=O)(=O)CCC(N)C(=O)O (stereo unspecified)
TGI [1]: > 100 µM | TGI [2]: > 100 µM | TGI [3]: > 100 µM | TGI [4]: > 100 µM | TGI [5]: > 100 µM | TGI [6]: > 100 µM | TGI [7]: > 100 µM | TGI [8]: > 100 µM | TGI [9]: > 100 µM | TGI [10]: > 100 µM | TGI [11]: > 100 µM | TGI [12]: > 100 µM | TGI [13]: > 100 µM | TGI [14]: > 100 µM | TGI [15]: > 100 µM | TGI [16]: > 100 µM | TGI [17]: > 100 µM | TGI [18]: > 100 µM | TGI [19]: > 100 µM | TGI [20]: > 100 µM | TGI [21]: > 100 µM | TGI [22]: > 100 µM | TGI [23]: > 100 µM | TGI [24]: > 100 µM | TGI [25]: > 100 µM | TGI [26]: > 100 µM | TGI [27]: > 100 µM | TGI [28]: > 100 µM | TGI [29]: > 100 µM | TGI [30]: > 100 µM | TGI [31]: > 100 µM | TGI [32]: > 100 µM | TGI [33]: > 100 µM | TGI [34]: > 100 µM | TGI [35]: > 100 µM | TGI [36]: > 100 µM | TGI [37]: > 100 µM | TGI [38]: > 100 µM | TGI [39]: > 100 µM | TGI [40]: > 100 µM | TGI [41]: > 100 µM | TGI [42]: > 100 µM | TGI [43]: > 100 µM | TGI [44]: > 100 µM | TGI [45]: > 100 µM | TGI [46]: > 100 µM | TGI [47]: > 100 µM | TGI [48]: > 100 µM | TGI [49]: > 100 µM | TGI [50]: > 100 µM | TGI [51]: > 100 µM | TGI [52]: > 100 µM | TGI [53]: > 100 µM | TGI [54]: > 100 µM | TGI [55]: > 100 µM

Cc1cccnc1/N=C/c1c(O)n(C)c(=O)[nH]c1=O
TGI [1]: > 100 µM | TGI [2]: > 100 µM | TGI [3]: > 100 µM | TGI [4]: > 100 µM | TGI [5]: > 100 µM | TGI [6]: > 100 µM | TGI [8]: > 100 µM | TGI [9]: > 100 µM | TGI [10]: > 100 µM | TGI [12]: > 100 µM | TGI [13]: > 100 µM | TGI [14]: > 100 µM | TGI [15]: > 100 µM | TGI [56]: > 100 µM | TGI [16]: > 100 µM | TGI [17]: > 100 µM | TGI [18]: > 100 µM | TGI [20]: > 100 µM | TGI [57]: > 100 µM | TGI [21]: > 100 µM | TGI [22]: 87.7 µM | TGI [23]: > 100 µM | TGI [58]: > 100 µM | TGI [25]: > 100 µM | TGI [26]: > 100 µM | TGI [27]: > 100 µM | TGI [28]: > 100 µM | TGI [29]: > 100 µM | TGI [30]: > 100 µM | TGI [32]: > 100 µM | TGI [33]: > 100 µM | TGI [34]: > 100 µM | TGI [35]: > 100 µM | TGI [36]: > 100 µM | TGI [38]: > 100 µM | TGI [39]: > 100 µM | TGI [40]: > 100 µM | TGI [41]: > 100 µM | TGI [42]: > 100 µM | TGI [43]: > 100 µM | TGI [44]: > 100 µM | TGI [45]: > 100 µM | TGI [46]: > 100 µM | TGI [47]: > 100 µM | TGI [49]: > 100 µM | TGI [50]: > 100 µM | TGI [51]: > 100 µM | TGI [52]: > 100 µM | TGI [53]: > 100 µM | TGI [54]: > 100 µM | TGI [55]: > 100 µM
